SMILES strings stand for the structures. A value given as a limit tells only on which side of the number the result lay.

The term IC50 denotes the concentration that inhibits the measured activity by half. Read a high IC50 as weaker potency.

For this test, the target named is T1, KRAS G12C (GMPPNP-loaded, Cys-light, amino acids 1-169) and cRAF Ras-binding domain interaction (Homo sapiens, UniProt P01116, C118S/C51S/C80L/G12C).
T1 construct: truncated version comprising amino acids 1-169
T1 sequence (P01116 1-169 isoform P01116-2 G12C/C51S/C80L/C118S): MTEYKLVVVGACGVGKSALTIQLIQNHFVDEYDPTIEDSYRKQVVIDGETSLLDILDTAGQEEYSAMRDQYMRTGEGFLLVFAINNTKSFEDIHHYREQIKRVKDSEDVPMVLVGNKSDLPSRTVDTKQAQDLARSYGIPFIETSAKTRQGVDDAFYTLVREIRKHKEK
As to the kind of experiment: Inhibition of KRAS G12C and cRAF binding (AlphaScreen). The note with it: KRAS G12C preloaded with GMPPNP, 2 hours compound incubation, room temperature. On the procedure:
The AlphaScreen technology was used to determine IC50s for compound inhibition of KRAS G12C (present as the Cys-light (C51S, C80L and C118S), truncated version comprising amino acids 1-169) and cRAF interaction. Compounds were diluted in 100% DMSO and each compound concentration was spotted at 200 nl/well onto low volume, white 384 well plates. The KRAS G12C contained a biotin-AviTag and the cRaf, as Ras-binding domain (amino acids 50-131, RBD), was GST-tagged. KRAS G12C was preloaded with the GTP analogue Guanosine 5′-[…] (GMPPNP). The KRAS G12C was diluted in 25 mM Hepes, pH 7.4, 150 mM NaCl, 5 mM MgCl2, 0.01% TritonX-100 and 10 μM GMPPNP and added at 10 ul/well to compound-spotted plates resulting in a DMSO concentration of 2%. Plates were incubated for 2 hours. A mixture of RBD and the AlphaScreen streptavidin donor and glutathione acceptor beads diluted in 25 mM Hepes, pH 7.4, 150 mM NaCl, 5 mM MgCl2, 0.01% TritonX-100 and 2% DMSO was then added at 10 ul/well and incubated for 60-90 minutes before the samples were read for emission at 570 nm after excitation of the donor beads at 680 nm. All incubations were performed at room temperature. The final top compound concentration was 50 μM with 1:3 titrations for 10-point dose response curves. Final assay conditions were 0.5 nM KRAS G12C, 0.75 nM RBD and 5 μg/ml each of AlphaScreen donor and acceptor beads. IC50s were determined using nonlinear regression fit of [inhibitor] vs. response (4 parameters).
A counter assay was also set up to rule out inhibitors of the AlphaScreen technology itself. Compound plates were incubated for 2 hours as above with buffer only. The AlphaScreen beads were added as above except biotin-AviTag-GST was substituted for the RBD. Samples were read and analyzed as above.
As to `Cc1cc(/C=C(\F)C(=O)N2CCN(c3nc(OC[C@@]45CCCN4C[C@H](F)C5)nc4c(F)c(-c5cccc(Cl)c5C5CC5)ncc34)C[C@@H]2CC#N)nc(C)n1` [Compound 32, 2-((S)-4-(7-(3-chloro-2-cyclopropylphenyl)-8-fluoro-2-(((2R,7aS)-2-fluorotetrahydro-1H-pyrrolizin-7a(5H)-yl)methoxy)pyrido[4,3-d]pyrimidin-4-yl)-1-((Z)-3-(2,6-dimethylpyrimidin-4-yl)-2-fluoroacryloyl)piperazin-2-yl)acetonitrile], the IC50 is less than 10 nM.
The result for `Cc1nccc(/C=C(\F)C(=O)N2CCN(c3nc(OC[C@@]45CCCN4C[C@H](F)C5)nc4c(F)c(-c5cccc6cccc(F)c56)ncc34)C[C@@H]2CC#N)n1` [Compound 33] reads less than 10 nM; that for `Cc1cc(/C=C(\F)C(=O)N2CCN(c3nc(OC[C@@]45CCCN4C[C@H](F)C5)nc4c(F)c(-c5cccc6ccc(F)c(C)c56)ncc34)C[C@@H]2CC#N)nc(C)n1` [Compound 34], less than 10 nM.
Under `Cc1cc(/C=C(\F)C(=O)N2CCN(c3nc(OC[C@@]45CCCN4C[C@H](F)C5)nc4c(F)c(-c5cccc6ccc(F)c(Cl)c56)ncc34)C[C@@H]2CC#N)nc(C)n1` [Compound 35] stands less than 10 nM; under `Cc1nccc(/C=C(\F)C(=O)N2CC[C@H](O)[C@@H](N(C)c3nc(OC[C@@]45CCCN4C[C@H](F)C5)nc4c(F)c(-c5cccc6cccc(Cl)c56)ncc34)C2)n1` [Compound 36], 100 to 500 nM.
The result for `Cc1nccc(/C=C(\F)C(=O)N2CC[C@@H](N(C)c3nc(OC[C@@]45CCCN4C[C@H](F)C5)nc4c(F)c(-c5cccc6cccc(Cl)c56)ncc34)C2)n1` [Compound 37, (Z)-1-((R)-3-((7-(8-chloronaphthalen-1-yl)-8-fluoro-2-(((2R,7aS)-2-fluorotetrahydro-1H-pyrrolizin-7a(5H)-yl)methoxy)pyrido[4,3-d]pyrimidin-4-yl)(methyl)amino)pyrrolidin-1-yl)-2-fluoro-3-(2-methylpyrimidin-4-yl)prop-2-en-1-one] reads less than 10 nM; that for `Cc1nccc(/C=C(\F)C(=O)N2CC[C@@H](N(C)c3nc(OC[C@@]45CCCN4C[C@H](F)C5)nc4c(F)c(-c5cccc6ccc(F)c(F)c56)ncc34)C2)n1` [Compound 38], less than 10 nM.
In turn, `Cc1nccc(/C=C(\F)C(=O)N2CC[C@@H](N(C)c3nc(OC[C@@]45CCCN4C[C@H](F)C5)nc4c(F)c(-c5cccc(Cl)c5C5CC5)ncc34)C2)n1` [Compound 39] had a concentration for half-maximal inhibition (IC50) of less than 10 nM.
Under `Cc1nccc(/C=C(\F)C(=O)N2CC(CN(C)c3nc(OC[C@@]45CCCN4C[C@H](F)C5)nc4c(F)c(-c5cccc6cccc(Cl)c56)ncc34)C2)n1` [Compound 40] stands less than 10 nM; under `Cc1cc(/C=C(\F)C(=O)N2CC[C@@H](N(C)c3nc(OC[C@@]45CCCN4C[C@H](F)C5)nc4c(F)c(-c5cccc6ccc(F)c(F)c56)ncc34)C2)nc(C)n1` [Compound 41, (Z)-1-((R)-3-((7-(7,8-difluoronaphthalen-1-yl)-8-fluoro-2-(((2R,7aS)-2-fluorotetrahydro-1H-pyrrolizin-7a(5H)-yl)methoxy)pyrido[4,3-d]pyrimidin-4-yl)(methyl)amino)pyrrolidin-1-yl)-3-(2,6-dimethylpyrimidin-4-yl)-2-fluoroprop-2-en-1-one], less than 10 nM; under `C#Cc1c(F)ccc2cccc(-c3ncc4c(N(C)[C@@H]5CCN(C(=O)/C(F)=C/c6ccnc(C)n6)C5)nc(OC[C@@]56CCCN5C[C@H](F)C6)nc4c3F)c12` [Compound 42], less than 10 nM.
The result for `Cc1nccc(/C=C(\F)C(=O)N2CC[C@@H](N(C)c3nc(OC[C@@]45CCCN4C[C@H](F)C5)nc4c(F)c(-c5cccc(Cl)c5C(F)(F)F)ncc34)C2)n1` [Compound 43] reads less than 10 nM.
As for `C#Cc1c(F)ccc2cccc(-c3ncc4c(N(C)[C@@H]5CCN(C(=O)/C(F)=C/c6cc(C)nc(C)n6)C5)nc(OC[C@@]56CCCN5C[C@H](F)C6)nc4c3F)c12` [Compound 44, (Z)-3-(2,6-dimethylpyrimidin-4-yl)-1-((R)-3-((7-(8-ethynyl-7-fluoronaphthalen-1-yl)-8-fluoro-2-(((2R,7aS)-2-fluorotetrahydro-1H-pyrrolizin-7a(5H)-yl)methoxy)pyrido[4,3-d]pyrimidin-4-yl)(methyl)amino)pyrrolidin-1-yl)-2-fluoroprop-2-en-1-one], the IC50 was less than 10 nM.
Under `CCc1c(F)ccc2cccc(-c3ncc4c(N(C)[C@@H]5CCN(C(=O)/C(F)=C/c6ccnc(C)n6)C5)nc(OC[C@@]56CCCN5C[C@H](F)C6)nc4c3F)c12` [Compound 45] stands less than 10 nM; under `Cc1cc(/C=C(\F)C(=O)N2CC[C@@H](N(C)c3nc(OC[C@@]45CCCN4C[C@H](F)C5)nc4c(F)c(-c5cccc(Cl)c5C5CC5)ncc34)C2)nc(C)n1` [Compound 46, (Z)-1-((R)-3-((7-(3-chloro-2-cyclopropylphenyl)-8-fluoro-2-(((2R,7aS)-2-fluorotetrahydro-1H-pyrrolizin-7a(5H)-yl)methoxy)pyrido[4,3-d]pyrimidin-4-yl)(methyl)amino)pyrrolidin-1-yl)-3-(2,6-dimethylpyrimidin-4-yl)-2-fluoroprop-2-en-1-one], less than 10 nM; under `Cc1cc(/C=C(\F)C(=O)N2CC[C@@H](N(C)c3nc(OC[C@@]45CCCN4C[C@H](F)C5)nc4c(F)c(-c5cccc(Cl)c5C(F)(F)F)ncc34)C2)nc(C)n1` [Compound 47], less than 10 nM.
The result for `COc1nc(N(C)[C@@H]2CCN(C(=O)/C(F)=C/c3cc(C)nc(C)n3)C2)c2cnc(-c3cccc4ccc(F)c(F)c34)c(F)c2n1` [Compound 48] reads not below 500 nM; that for `C#Cc1c(F)ccc2cccc(-c3ncc4c(N5CCN(C(=O)/C(F)=C/c6cc(C)nc(C)n6)[C@@H](CC#N)C5)nc(OC)nc4c3F)c12` [Compound 49, (S,Z)-2-(1-(3-(2,6-dimethylpyrimidin-4-yl)-2-fluoroacryloyl)-4-(7-(8-ethynyl-7-fluoronaphthalen-1-yl)-8-fluoro-2-methoxypyrido[4,3-d]pyrimidin-4-yl)piperazin-2-yl)acetonitrile], 100 to 500 nM; that for `Cc1cc(/C=C(\F)C(=O)N2CC[C@@H](N(C)c3nc(OC[C@@H]4CCCN4C)nc4c(F)c(-c5cccc(Cl)c5C5CC5)ncc34)C2)nc(C)n1` [Compound 50], 10 to 100 nM.
Under `Cc1cc(/C=C(\F)C(=O)N2CC[C@@H](N(C)c3nc(N4CC(N(C)C)C4)nc4c(F)c(-c5cccc(Cl)c5C5CC5)ncc34)C2)nc(C)n1` [Compound 51] stands 100 to 500 nM; under `Cc1cc(/C=C(\F)C(=O)N2CC[C@@H](N(C)c3nc(OC[C@@H]4CCCN4C)nc4c(F)c(-c5cccc6ccc(F)c(F)c56)ncc34)C2)nc(C)n1` [Compound 52], less than 10 nM; under `Cc1cc(/C=C(\F)C(=O)N2CC[C@@H](N(C)c3nc(N4CC(N(C)C)C4)nc4c(F)c(-c5cccc6ccc(F)c(F)c56)ncc34)C2)nc(C)n1` [Compound 53], 10 to 100 nM.
`COc1nc(N2CCN(C(=O)/C(F)=C/c3cc(C)nc(C)n3)[C@@H](CC#N)C2)c2cnc(-c3cccc4ccc(F)c(Cl)c34)c(F)c2n1` [Compound 54, (S,Z)-2-(4-(7-(8-chloro-7-fluoronaphthalen-1-yl)-8-fluoro-2-methoxypyrido[4,3-d]pyrimidin-4-yl)-1-(3-(2,6-dimethylpyrimidin-4-yl)-2-fluoroacryloyl)piperazin-2-yl)acetonitrile] had an IC50 not below 500 nM.
The result for `COc1nc(N2CCN(C(=O)/C(F)=C/c3cc(C)nc(C)n3)[C@@H](CC#N)C2)c2cnc(-c3cc(O)cc(Cl)c3C3CC3)c(F)c2n1` [Compound 55, (S,Z)-2-(4-(7-(3-chloro-2-cyclopropyl-5-hydroxyphenyl)-8-fluoro-2-methoxypyrido[4,3-d]pyrimidin-4-yl)-1-(3-(2,6-dimethylpyrimidin-4-yl)-2-fluoroacryloyl)piperazin-2-yl)acetonitrile] reads less than 10 nM; that for `COc1nc(N(C)[C@@H]2CCN(C(=O)/C(F)=C/c3cc(C)nc(C)n3)C2)c2cnc(-c3cc(O)cc(Cl)c3C3CC3)c(F)c2n1` [Compound 56, (R,Z)-1-(3-((7-(3-chloro-2-cyclopropyl-5-hydroxyphenyl)-8-fluoro-2-methoxypyrido[4,3-d]pyrimidin-4-yl)(methyl)amino)pyrrolidin-1-yl)-3-(2,6-dimethylpyrimidin-4-yl)-2-fluoroprop-2-en-1-one], 100 to 500 nM.
Regarding `Cc1cc(/C=C(\F)C(=O)N2CCN(c3nc(C)nc4c(F)c(-c5cc(O)cc(Cl)c5C5CC5)ncc34)C[C@@H]2CC#N)nc(C)n1` [Compound 57], the IC50 was less than 10 nM.
Under `Cc1cc(/C=C(\F)C(=O)N2CCN(c3ncnc4c(F)c(-c5cc(O)cc(Cl)c5C5CC5)ncc34)C[C@@H]2CC#N)nc(C)n1` [Compound 58] stands less than 10 nM.
